# Reference: patent US20100317647A1 (priority 2009, published 2010)
# Target: human Cat S (Homo sapiens, UniProt P25774)
# Assay: Cathepsin enzyme inhibition assay (fluorogenic peptide substrate cleavage)
# Format: biochemical
# Settings: human Cat S 1 nM; substrate Z-Val-Val-Arg-AMC 20 μM; pH 6.5; fluorescence over 20 minutes
# Protocol: Cathepsin Enzyme Inhibition Assay
# Enzyme activity is measured by observing the increase in fluorescence intensity caused by cleavage of a peptide substrate containing a fluorophore whose emission is quenched in the intact peptide.
# Assay buffer: 100 mM potassium phosphate pH 6.5, EDTA-Na 5 mM, Triton X-100 0.001%, DTT 5 mM. Enzymes (all at 1 nM): human and mouse Cathepsin S, Cat K, Cat B, Cat L. Substrate (20 μM): Z-Val-Val-Arg-AMC, except for Cat K which uses Z-Leu-Arg-AMC (both from Bachem).
# AMC=7-Amino-4-Methyl-Coumarin.
# DTT=dithiothreitol. Final volume: 100 μL.
# Excitation 360 nm, Emission 465 nm.
# Enzyme is added to the substance dilutions in 96-well microtitre plates and the reaction is started with substrate. Fluorescence emission is measured over 20 minutes, during which time a linear increase is observed in the absence of inhibitor. IC50 are calculated by standard methods. Inhibition of human Cat S, mouse Cat S, human Cat K, mouse Cat K, human Cat B, mouse Cat B, human Cat L and mouse Cat L have been measured separately. The results obtained for human Cat S are expressed in the following table.
# Chain of human Cat S (P25774 115-331): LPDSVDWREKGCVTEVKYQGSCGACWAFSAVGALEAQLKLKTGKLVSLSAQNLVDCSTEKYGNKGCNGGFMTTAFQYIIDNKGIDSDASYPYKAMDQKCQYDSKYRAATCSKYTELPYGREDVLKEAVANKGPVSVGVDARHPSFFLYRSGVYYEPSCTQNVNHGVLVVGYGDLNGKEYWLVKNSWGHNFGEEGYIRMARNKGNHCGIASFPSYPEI
row,IC50,SMILES
1,4 nM,"CO[C@@H]1C[C@H](S(=O)(=O)c2ccc(-n3cccn3)cc2Cl)C[C@H]1C(=O)NC1(C#N)CC1 (racemic) [Example 59, (1R,2R,4R) and (1S,2S,4S)-4-(2-Chloro-4-pyrazol-1-yl-benzenesulfonyl)-2-methoxy-cyclopentanecarboxylic acid (1-cyano-cyclopropyl)-amide]"
2,26.5 nM,"CO[C@@H]1C[C@H](S(=O)(=O)c2ccc(O[C@H](C)C(F)(F)F)cc2Cl)C[C@H]1C(=O)NC1(C#N)CC1 (racemic) [Example 60, (1R,2R,4R) and (1S,2S,4S)-4-[2-Chloro-4-((R/S)-2,2,2-trifluoro-1-methyl-ethoxy)-benzenesulfonyl]-2-methoxy-cyclopentanecarboxylic acid (1-cyano-cyclopropyl)-amide]"
3,0.3 nM,"CO[C@@H]1C[C@H](S(=O)(=O)c2ccc(-c3nc(C)cs3)cc2C(F)(F)F)C[C@H]1C(=O)NC1(C#N)CC1 (racemic) [Example 61, (1R,2R,4R) and (1S,2S,4S)-2-Methoxy-4-[4-(4-methyl-thiazol-2-yl)-2-trifluoromethyl-benzenesulfonyl]-cyclopentanecarboxylic acid (1-cyano-cyclopropyl)-amide]"
4,1.4 nM,"CO[C@@H]1C[C@H](S(=O)(=O)c2ccc(-c3ccc(F)cc3F)cc2C(F)(F)F)C[C@H]1C(=O)NC1(C#N)CC1 (racemic) [Example 62, (1R,2R,4R) and (1S,2S,4S)-4-(2′,4′-Difluoro-3-trifluoromethyl-biphenyl-4-sulfonyl)-2-methoxy-cyclopentanecarboxylic acid (1-cyano-cyclopropyl)-amide]"
5,1.3 nM,"CO[C@@H]1C[C@H](S(=O)(=O)c2ccc(-c3ccc(F)cc3)cc2C(F)(F)F)C[C@H]1C(=O)NC1(C#N)CC1 (racemic) [Example 63, (1R,2R,4R) and (1S,2S,4S)-4-(4′-Fluoro-3-trifluoromethyl-biphenyl-4-sulfonyl)-2-methoxy-cyclopentanecarboxylic acid (1-cyano-cyclopropyl)-amide]"
6,12 nM,"CO[C@@H]1C[C@H](S(=O)(=O)c2ccc(N3CCCCC3)cc2Cl)C[C@H]1C(=O)NC1(C#N)CC1 (racemic) [Example 64, (1R,2R,4R) and (1S,2S,4S)-4-(2-Chloro-4-piperidin-1-yl-benzenesulfonyl)-2-methoxy-cyclopentanecarboxylic acid (1-cyano-cyclopropyl)-amide]"
7,8 nM,"CO[C@@H]1C[C@H](S(=O)(=O)c2ccc(OCC(F)(F)F)cc2Cl)C[C@H]1C(=O)NC1(C#N)CC1 (racemic) [Example 65, (1R,2R,4R) and (1S,2S,4S)-4-[2-Chloro-4-(2,2,2-trifluoro-ethoxy)-benzenesulfonyl]-2-methoxy-cyclopentanecarboxylic acid (1-cyano-cyclopropyl)-amide]"
8,0.7 nM,"CO[C@@H]1C[C@H](S(=O)(=O)c2ccc(-c3cnn(C)c3)cc2C(F)(F)F)C[C@H]1C(=O)NC1(C#N)CC1 (racemic) [Example 66, (1R,2R,4R) and (1S,2S,4S)-2-Methoxy-4-[4-(1-methyl-1H-pyrazol-4-yl)-2-trifluoromethyl-benzenesulfonyl]-cyclopentanecarboxylic acid (1-cyano-cyclopropyl)-amide]"
9,0.6 nM,"CO[C@@H]1C[C@H](S(=O)(=O)c2ccc(-c3cc(C)nn3C)cc2C(F)(F)F)C[C@H]1C(=O)NC1(C#N)CC1 (racemic) [Example 67, (1R,2R,4R) and (1S,2S,4S)-4-[4-(2,5-Dimethyl-2H-pyrazol-3-yl)-2-trifluoromethyl-benzenesulfonyl]-2-methoxy-cyclopentanecarboxylic acid (1-cyano-cyclopropyl)-amide]"
10,1.2 nM,"CO[C@@H]1C[C@H](S(=O)(=O)c2ccc(-c3ccnn3C)cc2C(F)(F)F)C[C@H]1C(=O)NC1(C#N)CC1 (racemic) [Example 72, (1R,2R,4R) and (1S,2S,4S)-2-Methoxy-4-[4-(1-methyl-1H-pyrazol-5-yl)-2-trifluoromethyl-benzenesulfonyl]-cyclopentanecarboxylic acid (1-cyano-cyclopropyl)-amide]"
11,1 nM,"CO[C@@H]1C[C@H](S(=O)(=O)c2ccc(-c3cc[nH]n3)cc2C(F)(F)F)C[C@H]1C(=O)NC1(C#N)CC1 (racemic) [Example 73, (1R,2R,4R) and (1S,2S,4S)-2-Methoxy-4-[4-(1H-pyrazol-3-yl)-2-trifluoromethyl-benzenesulfonyl]-cyclopentanecarboxylic acid (1-cyano-cyclopropyl)-amide]"
12,0.7 nM,"CO[C@@H]1C[C@H](S(=O)(=O)c2ccc(-c3ccc(F)c(F)c3)cc2C(F)(F)F)C[C@H]1C(=O)NC1(C#N)CC1 (racemic) [Example 74, (1R,2R,4R) and (1S,2S,4S)-4-(3′,4′-Difluoro-3-trifluoromethyl-biphenyl-4-sulfonyl)-2-methoxy-cyclopentanecarboxylic acid (1-cyano-cyclopropyl)-amide]"
13,0.5 nM,"CO[C@@H]1C[C@H](S(=O)(=O)c2ccc(-c3ccc(S(C)(=O)=O)cc3)cc2C(F)(F)F)C[C@H]1C(=O)NC1(C#N)CC1 (racemic) [Example 75, (1R,2R,4R) and (1S,2S,4S)-4-(4′-Methanesulfonyl-3-trifluoromethyl-biphenyl-4-sulfonyl)-2-methoxy-cyclopentanecarboxylic acid (1-cyano-cyclopropyl)-amide]"
14,0.6 nM,"CO[C@@H]1C[C@H](S(=O)(=O)c2ccc(-c3ccc(S(N)(=O)=O)cc3)cc2C(F)(F)F)C[C@H]1C(=O)NC1(C#N)CC1 (racemic) [Example 76, (1R,2R,4R) and (1S,2S,4S)-2-Methoxy-4-(4′-sulfamoyl-3-trifluoromethyl-biphenyl-4-sulfonyl)-cyclopentanecarboxylic acid (1-cyano-cyclopropyl)-amide]"
15,0.6 nM,"CO[C@@H]1C[C@H](S(=O)(=O)c2ccc(-c3ccnc(C)c3)cc2C(F)(F)F)C[C@H]1C(=O)NC1(C#N)CC1 (racemic) [Example 77, (1R,2R,4R) and (1S,2S,4S)-2-Methoxy-4-[4-(2-methyl-pyridin-4-yl)-2-trifluoromethyl-benzenesulfonyl]-cyclopentanecarboxylic acid (1-cyano-cyclopropyl)-amide]"
16,0.3 nM,"COc1ccc(-c2ccc(S(=O)(=O)[C@H]3C[C@@H](OC)[C@H](C(=O)NC4(C#N)CC4)C3)c(C(F)(F)F)c2)cn1 (racemic) [Example 78, (1R,2R,4R) and (1S,2S,4S)-2-Methoxy-4-[4-(6-methoxy-pyridin-3-yl)-2-trifluoromethyl-benzenesulfonyl]-cyclopentanecarboxylic acid (1-cyano-cyclopropyl)-amide]"
17,683 nM,"N#CCNC(=O)[C@H]1CC[C@H](S(=O)(=O)c2ccc(F)cc2Cl)C1 (racemic) [Example 79, (1S,3S) and (1R,3R)-3-(2-Chloro-4-fluoro-benzenesulfonyl)-cyclopentanecarboxylic acid cyanomethyl-amide]"
18,1030 nM,"C[C@H](Oc1ccc(S(=O)(=O)[C@H]2CC[C@H](C(=O)NCC#N)C2)c(Cl)c1)C(F)(F)F (racemic) [Example 80, (1S,3S)-3-[2-Chloro-4-(2,2,2-trifluoro-1-methyl-ethoxy)-benzenesulfonyl]-cyclopentanecarboxylic acid cyanomethyl-amide (epimeric mixture of racemate)]"
19,0.6 nM,"CO[C@@H]1C[C@H](S(=O)(=O)c2ccc(-c3ccc(C)nc3)cc2C(F)(F)F)C[C@H]1C(=O)NC1(C#N)CC1 (racemic) [Example 81, (1R,2R,4R) and (1S,2S,4S)-2-Methoxy-4-[4-(6-methyl-pyridin-3-yl)-2-trifluoromethyl-benzenesulfonyl]-cyclopentanecarboxylic acid (1-cyano-cyclopropyl)-amide]"
20,0.6 nM,"CO[C@@H]1C[C@H](S(=O)(=O)c2ccc(-c3cncnc3)cc2C(F)(F)F)C[C@H]1C(=O)NC1(C#N)CC1 (racemic) [Example 82, (1R,2R,4R) and (1S,2S,4S)-2-Methoxy-4-(4-pyrimidin-5-yl-2-trifluoromethyl-benzenesulfonyl)-cyclopentanecarboxylic acid (1-cyano-cyclopropyl)-amide]"
21,0.2 nM,"CO[C@@H]1C[C@H](S(=O)(=O)c2ccc(-c3cncc(S(C)(=O)=O)c3)cc2C(F)(F)F)C[C@H]1C(=O)NC1(C#N)CC1 (racemic) [Example 83, (1R,2R,4R) and (1S,2S,4S)-4-[4-(5-Methanesulfonyl-pyridin-3-yl)-2-trifluoromethyl-benzenesulfonyl]-2-methoxy-cyclopentanecarboxylic acid (1-cyano-cyclopropyl)-amide]"
22,0.7 nM,"CO[C@@H]1C[C@H](S(=O)(=O)c2ccc(-c3cncc(F)c3)cc2C(F)(F)F)C[C@H]1C(=O)NC1(C#N)CC1 (racemic) [Example 84, (1R,2R,4R) and (1S,2S,4S)-4-[4-(5-Fluoro-pyridin-3-yl)-2-trifluoromethyl-benzenesulfonyl]-2-methoxy-cyclopentanecarboxylic acid (1-cyano-cyclopropyl)-amide]"
23,0.5 nM,"CO[C@@H]1C[C@H](S(=O)(=O)c2ccc(-c3cncc(C)c3)cc2C(F)(F)F)C[C@H]1C(=O)NC1(C#N)CC1 (racemic) [Example 85, (1R,2R,4R) and (1S,2S,4S)-2-Methoxy-4-[4-(5-methyl-pyridin-3-yl)-2-trifluoromethyl-benzenesulfonyl]-cyclopentanecarboxylic acid (1-cyano-cyclopropyl)-amide]"
